In US20090099343A1 (priority 2005, published 2009):

Columns and labels:
PrP^Sc [1] = details: for binding to PrP^Sc compared among peptide reagents: pH 4
PrP^Sc [2] = biological target: PrP^Sc (Mus musculus, UniProt P04925)
PrP^Sc [3] = system: PrP^Sc
PrP^Sc [4] = system: PrP^Sc; remark: listed apart in the source

PrP^Sc (Mus musculus, UniProt P04925), sequence (P04925 23-230 limits assumed): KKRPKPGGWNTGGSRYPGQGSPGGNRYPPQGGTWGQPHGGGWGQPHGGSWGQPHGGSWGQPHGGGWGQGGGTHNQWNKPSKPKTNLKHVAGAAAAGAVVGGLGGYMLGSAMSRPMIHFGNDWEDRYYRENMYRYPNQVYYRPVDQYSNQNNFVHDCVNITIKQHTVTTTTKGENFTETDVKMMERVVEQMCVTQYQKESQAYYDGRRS

(GGG)KKKKKKKK [SEQ ID NO:85]
pH of optimal binding to PrP^Sc (PrP^Sc [1]): 8 | binding to PrP^Sc compared among peptide reagents (PrP^Sc [1]): bound equally well

(GGG)KKRPKPGG [SEQ ID NO:68]
pH of optimal binding to PrP^Sc (PrP^Sc [1]): 8 | binding to PrP^Sc compared among peptide reagents (PrP^Sc [1]): bound equally well | binding to PrP^Sc in infected mouse brain homogenate (FIG. 4, lane 5) (PrP^Sc [2]): strong binding

(GGG)KKRPKPGGWNTGG [SEQ ID NO:67]
PrP^Sc eluted from peptide reagent (PrP^Sc [3]): eluted all | PrP^Sc dissociated from peptide reagent (PrP^Sc [4]): virtually all

(GGG)QWNKPSKPKTN [SEQ ID NO:14]
pH of optimal binding to PrP^Sc (PrP^Sc [1]): 8 | binding to PrP^Sc compared among peptide reagents (PrP^Sc [1]): bound equally well

GGGQWNKPSK*KTN, wherein * is N-(cyclopropylmethyl)glycine [SEQ ID NO:111]
PrP^Sc dissociated from peptide reagent with NaCl (PrP^Sc [4]): little was dissociated | tightness of PrP^Sc binding to peptide reagent (PrP^Sc [4]): bound most tightly
